# Source: US7834024B2, “Compositions and methods for inhibition of the JAK pathway” (Rigel Pharmaceuticals, Inc., priority 2007, dated 2010)
# Structures can show the parent of a compound that is named as a salt.
# System: Ramos B-Cell Line Stimulated with IL-4 (JAK-1 and JAK-3 / Stat-6, CD23)
# Test: Assay for Ramos B-Cell Line Stimulated with IL-4 (CD23 upregulation, FACS)
# Format: cell-based
# Details: Homo sapiens, Ramos, human Ramos B cells, compound 1 hour, IL-4 50 units/mL for 20-24 hours, anti-CD23-PE FACS; read-out: Example 2 (IC50)
# Procedure, shortened: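 Human Ramos B cells (5×10^4 per point, RPMI with 5% serum) pre-incubated 1 hour at 37° C with compound or DMSO, then stimulated with IL-4 at 50 units/mL final for 20-24 hours. CD23 upregulation measured by flow cytometry.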
row,Compound,IC50
1,"N#CCOc1ccc(Nc2nc(Nc3cccc(C(N)=O)c3)ncc2F)cc1Cl [Compound I-99, N2-(3-Aminocarbonylphenyl)-N4-(3-chloro-4-cyanomethoxyphenyl)-5-fluoro-2,4-pyrimidinediamine]",0.156 µM
2,"Cc1cnc(Nc2cnc3c(c2)OC(C)(C)C(=O)N3)nc1Nc1cnc2c(c1)OC(C)(C)C(=O)N2 [VII-1, N4,N2-Bis(2,2-Dimethyl-3-oxo[4H]-5-pyrido[1,4]oxazin-7-yl)-5-methyl-2,4-pyrimidinediamine]",2.63 µM
3,"CNC(=O)c1cc(Nc2ncc(F)c(Nc3ccc(OCC(N)=O)cc3)n2)ccc1N1CCN(C)CC1 [Compound I-39, N4-(4-Aminocarbonylmethoxyphenyl)-5-fluoro-N2-[3-methylaminocarbonyl-4-(4-methylpiperazin-1-yl)phenyl]-2,4-pyrimidinediamine]",0.431 µM
4,"CCc1cc(Nc2ncc(F)c(Nc3ccc4c(c3)NC(=O)C(C)(C)O4)n2)cc(C#N)c1Cl [II-25, N2-(4-Chloro-3-cyano-5-ethylphenyl)-N4-(2,2-dimethyl-3-oxo-4H-benzo[1,4]oxazin-6-yl)-5-fluoro-2,4-pyrimidinediamine]",1.43 µM
5,"Cc1cc(Nc2nc(Nc3cccc(C(N)=O)c3)ncc2F)ccc1OC(C)C#N (stereo not drawn) [Compound I-93, N2-(3-Aminocarbonylphenyl)-N4-[4-(1-cyanoethoxy)-3-methylphenyl]-5-fluoro-2,4-pyrimidinediamine]",0.331 µM
6,"N#CCc1ccc(Nc2nc(Nc3ccc(C#N)cc3)ncc2F)cc1 [Compound I-69, N4-(4-Cyanomethylphenyl)-N2-(4-cyanophenyl)-5-fluoro-2,4-pyrimidinediamine]",7.19 µM
7,"CNC(=O)c1cc(Nc2ncc(F)c(Nc3cccc(OCC(N)=O)c3)n2)ccc1N1CCN(C)CC1 [Compound I-51, N4-(3-Aminocarbonylmethoxyphenyl)-5-fluoro-N2-[3-methylaminocarbonyl-4-(4-methylpiperazin-1-yl)phenyl]-2,4-pyrimidinediamine]",0.357 µM
8,"N#CCc1ccc(Nc2ncc(F)c(Nc3ccc(Cc4ccncc4)cc3)n2)cc1 [Compound I-131, N2-(4-Cyanomethylphenyl)-5-fluoro-N4-[4-(4-pyridinylmethyl)phenyl]-2,4-pyrimidinediamine]",0.382 µM
9,"Cc1cc(Nc2nc(Nc3ccc(CC#N)cc3)ncc2F)ccc1OCC#N [Compound I-86, N4-(4-Cyanomethoxy-3-methylphenyl)-N2-(4-cyanomethylphenyl)-5-fluoro-2,4-pyrimidinediamine]",0.142 µM
10,"CC(C#N)Oc1ccc(Nc2nc(Nc3cccc(C(N)=O)c3)ncc2F)cc1 (stereo not drawn) [Compound I-82, N2-(3-Aminocarbonylphenyl)-N4-[4-(1-cyanoethoxy)phenyl]-5-fluoro-2,4-pyrimidinediamine]",0.35 µM
11,"CN1C(=O)CSc2ccc(Nc3nc(Nc4ccc(C(N)=O)cc4)ncc3F)cc21 [II-4, N2-(4-Aminocarbonylphenyl)-5-fluoro-N4-(4-methyl-3-oxo-2H-benzo[1,4]thiazin-6-yl)-2,4-pyrimidinediamine]",0.00543 µM
12,"N#CCOc1ccc(Nc2nc(Nc3cccc(C(N)=O)c3)ncc2F)cc1F [Compound I-102, N2-(3-Aminocarbonylphenyl)-N4-(4-cyanomethoxy-3-fluorophenyl)-5-fluoro-2,4-pyrimidinediamine]",0.259 µM
13,"CC(C)(C#N)Oc1ccc(Nc2nc(Nc3cccc(C(N)=O)c3)ncc2F)cc1 [Compound I-85, N2-(3-Aminocarbonylphenyl)-N4-[4-(1-cyano-1-methylethoxy)phenyl]-5-fluoro-2,4-pyrimidinediamine]",0.76 µM
14,"Cc1nc(COc2ccc(Nc3nc(Nc4ccc(CC#N)cc4)ncc3F)cc2)no1 [Compound I-77, N2-(4-Cyanomethylphenyl)-5-fluoro-N4-[4-((5-methyl-1,2,4-oxadiazol-3-yl)methoxy)phenyl]-2,4-pyrimidinediamine]",0.247 µM
15,"Cc1cnc(Nc2ccc(C(N)=O)cc2)nc1Nc1ccc2c(c1)CCC(=O)N2C [II-29, N2-(4-Aminocarbonylphenyl)-5-methyl-N4-(1-methyl-2-oxo-1,2,3,4-tetrahydroquinolin-6-yl)-2,4-pyrimidinediamine]",0.609 µM
16,"NC(=O)COc1ccc(Nc2nc(Nc3ccc(C(N)=O)cc3)ncc2F)cc1 [Compound I-25, N4-(4-Aminocarbonylmethoxyphenyl)-N2-(4-aminocarbonylphenyl)-5-fluoro-2,4-pyrimidinediamine]",0.42 µM
17,"N#Cc1cccc(Nc2ncc(F)c(Nc3ccc(OCC(N)=O)cc3)n2)c1 [Compound I-22, N4-(4-Aminocarbonylmethoxyphenyl)-N2-(3-cyanophenyl)-5-fluoro-2,4-pyrimidinediamine]",0.886 µM
18,"CC(C#N)Oc1ccc(Nc2nc(Nc3ccc(CC#N)cc3)ncc2F)cc1 (stereo not drawn) [Compound I-78, N4-[4-(1-Cyanoethoxy)phenyl]-N2-(4-cyanomethylphenyl)-5-fluoro-2,4-pyrimidinediamine]",0.117 µM
19,"Cc1noc(CCc2ccc(Nc3nc(Nc4ccc(CC#N)cc4)ncc3F)cc2)n1 [Compound I-120, N2-(4-Cyanomethylphenyl)-5-fluoro-N4-[4-(2-(3-methyl-1,2,4-oxadiazol-5-yl)ethyl)phenyl]-2,4-pyrimidinediamine]",1.95 µM
20,"COC(=O)c1ccc(Nc2nc(Nc3cccc(C(N)=O)c3)ncc2F)s1 [Compound I-123, N2-(3-Aminocarbonylphenyl)-5-fluoro-N4-(5-methoxycarbonylthiophen-2-yl)-2,4-pyrimidinediamine]",1.06 µM
21,"N#CCc1ccc(Nc2ncc(F)c(Nc3ccc(F)c(C#N)c3)n2)cc1 [Compound I-118, N4-(3-Cyano-4-fluorophenyl)-N2-(4-cyanomethylphenyl)-5-fluoro-2,4-pyrimidinediamine]",103 µM
22,"CCc1cc(Nc2ncc(F)c(Nc3cccc(OCC#N)c3)n2)cc(C#N)c1Cl [Compound I-105, N2-(4-Chloro-3-cyano-5-ethylphenyl)-N4-(3-cyanomethoxyphenyl)-5-fluoro-2,4-pyrimidinediamine]",31.6 µM
23,"Cc1noc(Cc2ccc(Nc3nc(Nc4ccc(CC#N)cc4)ncc3F)cc2)n1 [Compound I-113, N2-(4-Cyanomethylphenyl)-5-fluoro-N4-[4-((3-methyl-1,2,4-oxadiazol-5-yl)methyl)phenyl]-2,4-pyrimidinediamine]",0.149 µM
24,"N#CCOc1cccc(Nc2nc(Nc3cccc(C#N)c3)ncc2F)c1 [Compound I-47, N4-(3-Cyanomethoxyphenyl)-N2-(3-cyanophenyl)-5-fluoro-2,4-pyrimidinediamine]",0.173 µM
25,"Cc1nc(COc2ccc(Nc3nc(Nc4ccc(C(N)=O)cc4)ncc3F)cc2)no1 [Compound I-56, N2-(4-Aminocarbonylphenyl)-5-fluoro-N4-[4-((5-methyl-1,2,4-oxadiazol-3-yl)methoxy)phenyl]-2,4-pyrimidinediamine]",0.0914 µM

# Same assay, conditions: human Ramos B cells, compound 1 hour, IL-4 50 units/mL for 20-24 hours, anti-CD23-PE FACS; read-out: Example 2 (IC50)
row,Compound,IC50
1,"Cc1noc(COc2cccc(Nc3nc(Nc4ccc(CC#N)cc4)ncc3F)c2)n1 [Compound I-129, N2-(4-Cyanomethylphenyl)-5-fluoro-N4-[3-((3-methyl-1,2,4-oxadiazol-5-yl)methyleneoxy)phenyl]-2,4-pyrimidinediamine]",1.29 µM
2,"Cc1noc(COc2ccc(N(C)c3nc(Nc4ccc(C(N)=O)cc4)ncc3F)cc2)n1 [Compound I-15, N2-(4-Aminocarbonylphenyl)-5-fluoro-N4-methyl-N4-[4-((3-methyl-1,2,4-oxadiazol-5-yl)methyleneoxy)phenyl]-2,4-pyrimidinediamine]",0.693 µM
3,"CNC(=O)COc1cccc(Nc2ncc(Br)c(Nc3ccc4c(c3)OCCO4)n2)c1 [II-1, 5-Bromo-N4-(3,4-ethylenedioxyphenyl)-N2-[3-(N-methylaminocarbonylmethyleneoxy)phenyl]-2,4-pyrimidinediamine]",0.0809 µM
4,"CNC(=O)COc1cccc(Nc2ncc(Br)c(Nc3ccc(OC)c(Cl)c3)n2)c1 [Compound I-1, 5-Bromo-N4-(3-chloro-4-methoxyphenyl)-N2-[3-(N-methylaminocarbonylmethyleneoxy)phenyl]-2,4-pyrimidinediamine]",0.123 µM
5,"CNC(=O)COc1cc(Nc2ncc(F)c(Nc3ccc4c(c3)NC(=O)CO4)n2)cc(OC)c1OC [II-22, N2-[4,5-Dimethoxy-3-(N-methylaminocarbonylmethyleneoxy)phenyl]-5-fluoro-N4-(3-oxo-2H,4H-benzo[1,4]oxazin-6-yl)-2,4-pyrimidinediamine]",0.11 µM
6,"N4-(4-Chloro-3-methoxyphenyl)-N2-[1-(2-(N-morpholinyl)ethylaminocarbonyl)-1H-indol-6-yl]-2,4-pyrimidinediamine [VI-4]",0.889 µM
7,"CN1CCN(C(=O)c2ccc(Nc3ncc(F)c(Nc4ccc(CC#N)cc4)n3)cc2)CC1 [Compound I-72, N4-(4-Cyanomethylphenyl)-5-fluoro-N2-[4-((4-methylpiperazin-1-yl)carbonyl)phenyl]-2,4-pyrimidinediamine]",0.599 µM
8,"Cc1noc(COc2ccc(Nc3nc(Nc4ccc(C(N)=O)cc4)ncc3F)cc2)n1 [Compound I-10, N2-(4-Aminocarbonylphenyl)-5-fluoro-N4-[4-((3-methyl-1,2,4-oxadiazol-5-yl)methyleneoxy)phenyl]-2,4-pyrimidinediamine Hydrogen Chloride Salt]",0.00485 µM
9,"CNC(=O)COc1cccc(Nc2ncc(C)c(Nc3cnc4c(c3)OC(F)(F)C(=O)N4)n2)c1 [II-36, N4-(2,2-Difluoro-3-oxo-4H-5-pyrido[1,4]oxazin-7-yl)-5-methyl-N2-[3-(N-methylaminocarbonylmethyleneoxy)phenyl]-2,4-pyrimidinediamine]",3.78 µM
10,"N4-(3-Chloro-4-methoxyphenyl)-N2-[1-(2-(N-morpholinyl)ethylaminocarbonyl)-1H-indol-6-yl]-2,4-pyrimidinediamine [VI-3]",0.645 µM
11,"Cc1cnc(Nc2cccc(C(N)=O)c2)nc1Nc1ccc2c(n1)N(C)C(=O)C(C)(C)O2 [II-43, N2-(3-Aminocarbonylphenyl)-5-methyl-N4-(2,2,4-trimethyl-3-oxo-5-pyrido[1,4]oxazin-6-yl)-2,4-pyrimidinediamine]",0.229 µM
